Experimental findings from EP4707277A1, “NOVEL HETEROCYCLIC AMINE DERIVATIVES AND PHARMACEUTICAL COMPOSITION COMPRISING SAME” (Daewoong Pharmaceutical Co., Ltd., priority 2023, dated 2024) are described below.

Read-outs that look alike come from different tables or passages of the source. Bounds are passed on as bounds.

One test concerns the target T1, BTK (Homo sapiens, UniProt Q06187).
T1 construct: purchased Signalchem B10-10H
Briefly: Inhibitory activity against BTK, ADP-Glo Kinase system (Promega). It counts as biochemical. In short, it runs like this:
(§1)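 ADP-Glo luminescent ADP detection with recombinant human ITK (4 ng/reaction) or BTK (10 ng/reaction) and poly(Glu4,Tyr1) substrate at 0.2 µg/µl. Buffer: Tris pH 7.5, MgCl2, MnCl2, BSA, DTT. ATP 1 mM or Km (BTK 10 µM, ITK 25 µM); 1% DMSO; 1 h at 30°C; IC50 from curve fit.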
(In ADP-Glo the light output rises with the ADP produced.)

Another test addresses T2, ITK (Homo sapiens, UniProt Q08881).
T2 construct: purchased Signalchem I13-11G-10
T2 sequence (Q08881 1-620): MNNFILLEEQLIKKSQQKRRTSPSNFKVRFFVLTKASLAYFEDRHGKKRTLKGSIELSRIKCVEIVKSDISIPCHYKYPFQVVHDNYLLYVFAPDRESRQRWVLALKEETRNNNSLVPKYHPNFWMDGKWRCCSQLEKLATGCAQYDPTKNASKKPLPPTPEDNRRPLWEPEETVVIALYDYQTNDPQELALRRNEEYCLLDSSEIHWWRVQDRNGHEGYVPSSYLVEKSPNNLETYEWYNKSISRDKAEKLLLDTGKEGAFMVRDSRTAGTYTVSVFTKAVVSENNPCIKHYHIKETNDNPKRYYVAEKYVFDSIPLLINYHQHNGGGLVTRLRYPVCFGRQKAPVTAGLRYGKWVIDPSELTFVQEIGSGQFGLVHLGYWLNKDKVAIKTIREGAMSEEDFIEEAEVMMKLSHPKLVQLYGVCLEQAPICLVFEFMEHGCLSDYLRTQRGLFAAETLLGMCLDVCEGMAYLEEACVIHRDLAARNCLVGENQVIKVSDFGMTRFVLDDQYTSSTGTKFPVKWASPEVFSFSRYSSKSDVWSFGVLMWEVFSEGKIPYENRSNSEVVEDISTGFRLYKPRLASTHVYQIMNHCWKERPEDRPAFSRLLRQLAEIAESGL
Put plainly: Inhibitory activity against ITK, ADP-Glo Kinase system (Promega). In kind it is biochemical. In short, it runs like this:
as §1

Setting [1] is: 1mM ATP, read-out: BTK IC50(nM) 1mM ATP.
[2] abbreviates: 1mM ATP, read-out: ITK IC50(nM) 1mM ATP.
Where [3] appears, read: Km ATP (BTK: 10 uM), read-out: BTK IC50(nM) Km ATP.
Where [4] appears, read: Km ATP (ITK: 25uM), read-out: ITK IC50(nM) Km ATP.

T1 sequence (Q06187 whole entry): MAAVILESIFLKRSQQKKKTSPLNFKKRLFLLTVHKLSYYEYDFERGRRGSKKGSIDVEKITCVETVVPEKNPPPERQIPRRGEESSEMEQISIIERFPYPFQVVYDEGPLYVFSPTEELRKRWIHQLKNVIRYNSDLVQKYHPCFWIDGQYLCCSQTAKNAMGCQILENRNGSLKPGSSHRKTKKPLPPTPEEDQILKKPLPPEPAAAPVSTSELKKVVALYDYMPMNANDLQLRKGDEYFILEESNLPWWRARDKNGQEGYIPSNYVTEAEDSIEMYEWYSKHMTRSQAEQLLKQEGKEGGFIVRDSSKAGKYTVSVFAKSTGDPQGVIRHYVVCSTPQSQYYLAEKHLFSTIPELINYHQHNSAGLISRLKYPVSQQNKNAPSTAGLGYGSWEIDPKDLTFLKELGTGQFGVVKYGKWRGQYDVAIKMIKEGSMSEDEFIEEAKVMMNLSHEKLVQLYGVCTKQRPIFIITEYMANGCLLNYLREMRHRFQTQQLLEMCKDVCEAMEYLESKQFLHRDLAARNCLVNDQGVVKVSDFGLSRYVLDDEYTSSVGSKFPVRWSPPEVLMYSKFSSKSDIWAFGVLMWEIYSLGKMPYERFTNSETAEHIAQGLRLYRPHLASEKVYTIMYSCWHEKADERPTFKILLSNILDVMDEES

As to `C=CC(=O)N1CC[C@H](Oc2nc(Nc3ncc(C)s3)cc3c2ccn3CCC)C1` [Example 126, (S)-1-(3-((6-((5-methylthiazol-2-yl)amino)-1-propyl-1H-pyrrolo[3,2-c]pyridin-4-yl)oxy)pyrrolidin-1-yl)prop-2-en-1-one], the half-inhibitory concentration (IC50) at BTK (setting [1]) and on ITK (setting [2]) was at most 20 nM throughout.

On to `C=CC(=O)N1CCC[C@@H]1COc1nc(Nc2ncc(C)s2)cc2c1ccn2C(C)C` [Example 89, (R)-1-(2-(((1-isopropyl-6-((5-methylthiazol-2-yl)amino)-1H-pyrrolo[3,2-c]pyridin-4-yl)oxy)methyl)pyrrolidin-1-yl)prop-2-en-1-one], for which the IC50 is at most 20 nM on BTK (setting [1]) and 20 to 100 nM at ITK (setting [2]).

For the molecule `C=CC(=O)N1CC[C@@H]1COc1nc(Nc2ncc(C)s2)cc2c1ccn2C(C)C` [Example 90, (R)-1-(2-(((1-isopropyl-6-((5-methylthiazol-2-yl)amino)-1H-pyrrolo[3,2-c]pyridin-4-yl)oxy)methyl)azetidin-1-yl)prop-2-en-1-one], the IC50 at BTK (setting [1]) and at ITK (setting [2]) was at most 20 nM each time.

`C=CC(=O)N1CC(C)C(Oc2nc(Nc3ncc(C)s3)cc3c2ccn3CC(C)C)C1` (stereo not drawn) [Example 116, 1-(3-((1-isobutyl-6-((5-methylthiazol-2-yl)amino)-1H-pyrrolo[3,2-c]pyridin-4-yl)oxy)-4-methylpyrrolidin-1-yl)prop-2-en-1-one]: the IC50 on BTK (setting [3]) and at ITK (setting [4]) was at most 20 nM each time.

`C=CC(=O)N1CC=C(c2nc(Nc3ncc(C)s3)cc3c2ccn3CCc2ccccc2)CC1` [Example 16, 1-(4-(6-((5-methylthiazol-2-yl)amino)-1-phenethyl-1H-pyrrolo[3,2-c]pyridin-4-yl)-3,6-dihydropyridin-1(2H)-yl)prop-2-en-1-one]: the half-inhibitory concentration (IC50) on BTK (setting [3]) and on ITK (setting [4]) was at most 20 nM throughout.

Consider `C=CC(=O)N1CC[C@H](Oc2nc(Nc3cccn(C)c3=O)cc3c2ccn3C(C)C)C1` [Example 198, (S)-3-((4-((1-acryloylpyrrolidin-3-yl)oxy)-1-isopropyl-1H-pyrrolo[3,2-c]pyridin-6-yl)amino)-1-methylpyridin-2(1H)-one], for which the IC50 at BTK (setting [1]) and at ITK (setting [2]) was above 500 nM throughout.

On to `C=CC(=O)N1C[C@@H](Oc2nc(Nc3ncc(C)s3)cc3c2ccn3C2CCCC2)C[C@@H]1C` [Example 164, 1-((2S,4S)-4-((1-cyclopentyl-6-((5-methylthiazol-2-yl)amino)-1H-pyrrolo[3,2-c]pyridin-4-yl)oxy)-2-methylpyrrolidin-1-yl)prop-2-en-1-one], for which the figures for the IC50 on BTK (setting [1]) and on ITK (setting [2]) were 20 to 100 nM and 100 to 500 nM, respectively.

`C=CC(=O)N1C[C@@H](Oc2nc(Nc3ncc(C)s3)cc3c2ccn3C2CCCC2)C[C@H]1C` [Example 100, 1-((2R,4S)-4-((1-cyclopentyl-6-((5-methylthiazol-2-yl)amino)-1H-pyrrolo[3,2-c]pyridin-4-yl)oxy)-2-methylpyrrolidin-1-yl)prop-2-en-1-one]: the half-maximal inhibitory concentration (IC50) at BTK (setting [1]) and on ITK (setting [2]) was at most 20 nM throughout.

As to `C=CC(=O)N1CC[C@H](Oc2nc(Nc3cc(F)ccc3C)cc3c2ccn3C)C1` [Example 138, (S)-1-(3-((6-((5-fluoro-2-methylphenyl)amino)-1-methyl-1H-pyrrolo[3,2-c]pyridin-4-yl)oxy)pyrrolidin-1-yl)prop-2-en-1-one], the IC50 at BTK (setting [1]) and at ITK (setting [2]) was above 500 nM in each case.

The IC50 is the concentration that inhibits the measured activity by half.
